Broadly, the IC50 is the concentration at which inhibition is half-maximal. Read a low IC50 as inhibition by little substance.

15 compounds from patent US20160272617A1, “SUBSTITUTED PHENYLALANINE DERIVATIVES” (BAYER PHARMA AKTIENGESELLSCHAFT, priority 2013, published 2016) can be followed below.

The target of one assay is T1, human factor XIa (Homo sapiens, UniProt P03951).
T1 construct: purchased Kordia
Description: Measurement of FXIa inhibition (fluorogenic peptide substrate Boc-Glu(OBzl)-Ala-Arg-AMC). It is filed as biochemical. The conditions noted are these: factor XIa from Kordia, 15 min preincubation, 30 min at 22° C., fluorescence. Put shortly:
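Released AMC fluorescence (360/460 nm) read after 30 min at 22 °C. The reaction was started with Boc-Glu(OBzl)-Ala-Arg-AMC (10 μM stock) after a 15 min preincubation of the enzyme (0.45 nM stock) with compound (final 50 μM to 0.00013 μM).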

The subject of the next assay is human and animal plasma. As to the kind of experiment: Determination of anticoagulatory activity: activated partial thromboplastin time (aPTT) in plasma. The following applies: concentration of test substance which brings about a 1.5-fold extension of the aPTT; plasma species not given. The gist of the method: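 Citrated plasma (1:9, 0.11 M citrate; 4000 g, 15 min) from human or animal blood incubated with test compound and cephalin/kaolin PTT reagent for 3 min at 37° C.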

The target of another assay is T2, human plasmin (Homo sapiens, UniProt P00747).
T2 construct: purchased Kordia
Description: Measurement of plasmin inhibition (fluorogenic peptide substrate MeOSuc-Ala-Phe-Lys-AMC). It is filed as biochemical. The conditions noted are these: plasmin from Kordia, 15 min preincubation, 30 min at 22° C., fluorescence. As to the method:
The plasmin inhibition of the inventive substances is determined using a biochemical test system which utilizes the reaction of a peptidic plasmin substrate to determine the enzymatic activity of human plasmin. Here, plasmin cleaves from the peptic plasmin substrate the C-terminal aminomethylcoumarin (AMC), the fluorescence of which is measured. The determinations are carried out in microtitre plates.
Test substances are dissolved in dimethyl sulphoxide and serially diluted in dimethyl sulphoxide (3000 μM to 0.0078 μM; resulting final concentrations in the test: 50 μM to 0.00013 μM). In each case 1 μl of the diluted substance solutions are placed into the wells of white microtitre plates from Greiner (384 wells). Subsequently, the following are added successively: 20 μl of assay buffer (50 mmol/Tris buffer pH 7.4; 100 mmol/l sodium chloride; 5 mmol/calcium chloride; 0.1% bovine serum albumin) and 20 μl of plasmin from Kordia (0.3 μg/ml in assay buffer) are then added successively. After 15 min of incubation, the enzyme reaction is started by addition of 20 μl of the plasmin substrate MeOSuc-Ala-Phe-Lys-AMC dissolved in assay buffer (150 μM in assay buffer) from Bachem, the mixture is incubated at room temperature (22° C.) for 30 min and fluorescence is then measured (excitation: 360 nm, emission: 460 nm). The measured emissions of the test batches with test substance are compared to those of control batches without test substance (only dimethyl sulphoxide instead of test substance in dimethyl sulphoxide), and the IC50 values are calculated from the concentration/activity relationships.

Where a name gives a salt, the structure may show the parent alone.

T1 sequence (P03951 388-625 limits assumed): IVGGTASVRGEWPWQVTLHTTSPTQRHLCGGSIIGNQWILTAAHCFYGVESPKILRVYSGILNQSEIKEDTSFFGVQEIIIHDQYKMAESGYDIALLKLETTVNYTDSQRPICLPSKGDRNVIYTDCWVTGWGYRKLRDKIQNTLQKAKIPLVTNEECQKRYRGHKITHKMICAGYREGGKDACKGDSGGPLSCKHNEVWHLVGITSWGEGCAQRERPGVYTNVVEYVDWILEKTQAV
T1 sequence (P03951 19-387 partner limits assumed): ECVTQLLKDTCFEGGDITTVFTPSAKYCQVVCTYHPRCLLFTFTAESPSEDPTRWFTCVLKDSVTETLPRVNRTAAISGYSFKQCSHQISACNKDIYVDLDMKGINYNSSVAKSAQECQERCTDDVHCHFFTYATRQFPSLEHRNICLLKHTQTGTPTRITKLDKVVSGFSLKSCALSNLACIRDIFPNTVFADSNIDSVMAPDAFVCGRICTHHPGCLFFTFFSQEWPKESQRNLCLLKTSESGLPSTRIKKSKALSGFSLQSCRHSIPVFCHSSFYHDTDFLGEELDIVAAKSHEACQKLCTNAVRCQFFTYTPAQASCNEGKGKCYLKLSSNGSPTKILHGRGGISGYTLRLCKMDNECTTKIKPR
T2 sequence (P00747 581-810 limits assumed): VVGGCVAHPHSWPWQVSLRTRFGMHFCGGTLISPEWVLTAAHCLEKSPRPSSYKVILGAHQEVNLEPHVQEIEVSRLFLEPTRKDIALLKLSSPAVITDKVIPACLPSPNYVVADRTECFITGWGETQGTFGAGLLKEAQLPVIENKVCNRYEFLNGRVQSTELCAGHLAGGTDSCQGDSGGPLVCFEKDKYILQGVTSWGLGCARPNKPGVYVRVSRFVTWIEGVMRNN
T2 sequence (P00747 97-580 partner limits assumed): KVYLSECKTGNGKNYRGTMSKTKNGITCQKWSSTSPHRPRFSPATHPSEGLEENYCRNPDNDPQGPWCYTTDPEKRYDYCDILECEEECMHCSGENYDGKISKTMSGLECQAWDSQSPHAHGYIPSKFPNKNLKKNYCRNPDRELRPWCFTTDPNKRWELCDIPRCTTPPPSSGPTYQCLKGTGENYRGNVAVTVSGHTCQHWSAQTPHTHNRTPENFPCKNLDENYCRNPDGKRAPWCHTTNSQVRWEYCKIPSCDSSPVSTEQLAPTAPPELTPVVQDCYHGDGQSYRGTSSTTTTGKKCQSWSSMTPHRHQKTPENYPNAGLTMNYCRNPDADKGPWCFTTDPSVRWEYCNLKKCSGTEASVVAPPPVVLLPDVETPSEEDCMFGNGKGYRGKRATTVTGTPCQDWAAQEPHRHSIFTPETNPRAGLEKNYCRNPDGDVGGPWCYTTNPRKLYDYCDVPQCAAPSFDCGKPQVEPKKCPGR

Turning to `Cc1cc(C(=O)NC(C)C)ccc1-c1ccc(C[C@H](NC(=O)[C@H]2CC[C@H](CN)CC2)C(=O)Nc2ccc(-c3nn[nH]n3)c(F)c2)cc1` [Example 96, 4′-[(2S)-2-({[trans-4-(Aminomethyl)cyclohexyl]carbonyl}amino)-3-{[3-fluoro-4-(2H-tetrazol-5-yl)phenyl]amino}-3-oxopropyl]-N-isopropyl-2-methylbiphenyl-4-carboxamide hydrochloride], the values for the IC50 against human factor XIa and at human plasmin were 1.3 nM and 1.4 nM, respectively. Moreover, in the assay with human and animal plasma, the “aPTT” value was 0.5 µmol/L.

As for `Cc1cc(C(=O)NC(C)C)ccc1-c1ccc(C[C@H](NC(=O)[C@H]2CC[C@H](CN)CC2)C(=O)Nc2ccc(-c3nnc(C(F)(F)C(F)(F)C(=O)O)[nH]3)cc2)cc1` [Example 116, 3-{5-[4-({(2S)-2-({[trans-4-(Aminomethyl)cyclohexyl]carbonyl}amino)-3-[4′-(isopropylcarbamoyl)-2′-methylbiphenyl-4-yl]propanoyl}amino)phenyl]-4H-1,2,4-triazol-3-yl}-2,2,3,3-tetrafluoropropanoic acid hydrochloride], the IC50 on human factor XIa was found to be 2 nM; at human plasmin, 4.4 nM. For the same compound, the “aPTT” value with human and animal plasma is 0.57 µmol/L.

Turning to `Cc1cc(C(=O)N[C@@H](C)C(F)(F)F)ccc1-c1ccc(C[C@H](NC(=O)[C@H]2CC[C@H](CN)CC2)C(=O)Nc2ccc3[nH]c(=O)[nH]c3c2)cc1` [Example 133, 4′-{(2S)-2-({[trans-4-(Aminomethyl)cyclohexyl]carbonyl}amino)-3-oxo-3-[(2-oxo-2,3-dihydro-1H-benzimidazol-5-yl)amino]propyl}-2-methyl-N-[(2S)-1,1,1-trifluoropropan-2-yl]biphenyl-4-carboxamide], the IC50 on human factor XIa was found to be 6.7 nM; against human plasmin it was 1.6 nM. Moreover, the “aPTT” value with human and animal plasma was found to be 0.1 µmol/L.

With `CC(C)NC(=O)c1ccc(-c2ccc(C[C@H](NC(=O)[C@H]3CC[C@H](CN)CC3)C(=O)Nc3cc(F)c4cn[nH]c4c3)cc2)c(Cl)c1` [Example 134, 4′-{(2S)-2-({[trans-4-(Aminomethyl)cyclohexyl]carbonyl}amino)-3-[(4-fluoro-1H-indazol-6-yl)amino]-3-oxopropyl}-2-chloro-N-isopropylbiphenyl-4-carboxamide hydrochloride], the IC50 came out at 8.9 nM against human factor XIa and 0.64 nM on human plasmin. For the same compound, the “aPTT” value in the assay with human and animal plasma was 0.44 µmol/L.

On to `Cc1cc(C(=O)NC(C)C)ccc1-c1ccc(C[C@H](NC(=O)[C@H]2CC[C@H](CN)CC2)C(=O)Nc2ccc3c(=O)[nH][nH]c3c2)cc1` [Example 135, 4′-{(2S)-2-({[trans-4-(Aminomethyl)cyclohexyl]carbonyl}amino)-3-oxo-3-[(3-oxo-2,3-dihydro-1H-indazol-6-yl)amino]propyl}-N-isopropyl-2-methylbiphenyl-4-carboxamide hydrochloride], for which the figures for the IC50 against human factor XIa and at human plasmin were 2.2 nM and 0.96 nM, respectively. In addition, in the assay with human and animal plasma, the “aPTT” value stood at 0.24 µmol/L.

With `CC(NC(=O)c1ccc(-c2ccc(CC(NC(=O)[C@H]3CC[C@H](CN)CC3)C(=O)Nc3ccc(-c4nnn[nH]4)cc3)cc2)c(Cl)c1)C1CC1` (stereo partly shown) [Example 136, hydrochloride], the results for the IC50 at human factor XIa and on human plasmin were 1.2 nM and 1.5 nM, respectively. Further, the “aPTT” value with human and animal plasma came to 0.29 µmol/L.

For `CC(C)NC(=O)c1ccc(-c2ccc(C[C@H](NC(=O)[C@H]3CC[C@H](CN)CC3)C(=O)Nc3ccc4[nH]c(=O)[nH]c4c3)cc2)c(Cl)c1` [Example 137, 4′-{(2S)-2-({[trans-4-(Aminomethyl)cyclohexyl]carbonyl}amino)-3-oxo-3-[(2-oxo-2,3-dihydro-1H-benzimidazol-5-yl)amino]propyl}-2-chloro-N-isopropylbiphenyl-4-carboxamide hydrochloride], the results for the IC50 against human factor XIa and against human plasmin were 11 nM and 2.2 nM, respectively. The “aPTT” value in the assay with human and animal plasma was 0.07 µmol/L.

As for `Cc1cc(C(=O)NC2CCC2)ccc1-c1ccc(C[C@H](NC(=O)[C@H]2CC[C@H](CN)CC2)C(=O)Nc2ccc(-c3nnn[nH]3)cc2)cc1` [Example 138, 4′-[(2S)-2-({[trans-4-(Aminomethyl)cyclohexyl]carbonyl}amino)-3-oxo-3-{[4-(1H-tetrazol-5-yl)phenyl]amino}propyl]-N-cyclobutyl-2-methylbiphenyl-4-carboxamide hydrochloride], the IC50 came to 0.84 nM on human factor XIa and 2.3 nM at human plasmin. Moreover, in the assay with human and animal plasma, the “aPTT” value worked out at 0.25 µmol/L.

On to `Cc1cc(C(=O)NC(C)CO)ccc1-c1ccc(C[C@H](NC(=O)[C@H]2CC[C@H](CN)CC2)C(=O)Nc2ccc(-c3nnn[nH]3)cc2)cc1` (stereo partly drawn) [Example 139, 4′-[(2S)-2-({[trans-4-(Aminomethyl)cyclohexyl]carbonyl}amino)-3-oxo-3-{[4-(1H-tetrazol-5-yl)phenyl]amino}propyl]-N-(1-hydroxypropan-2-yl)-2-methylbiphenyl-4-carboxamide hydrochloride], for which the IC50 stood at 4.1 nM on human factor XIa and 13 nM against human plasmin. In the assay on human and animal plasma, the “aPTT” value turned out to be 0.17 µmol/L.

As for `Cc1cc(C(=O)NC(C)C)ccc1-c1ccc(C[C@H](NC(=O)[C@H]2CC[C@H](CN)CC2)C(=O)Nc2ccc3c(c2)[nH]c(=O)n3C)cc1` [Example 140, 4′-{(2S)-2-({[trans-4-(Aminomethyl)cyclohexyl]carbonyl}amino)-3-[(1-methyl-2-oxo-2,3-dihydro-1H-benzimidazol-5-yl)amino]-3-oxopropyl}-N-isopropyl-2-methylbiphenyl-4-carboxamide hydrochloride], the figures for the IC50 on human factor XIa and at human plasmin were 13 nM and 1.5 nM, respectively. Moreover, in the assay with human and animal plasma, the “aPTT” value was determined as 0.25 µmol/L.

For the compound `Cc1cc(C(=O)NC2CC2)ccc1-c1ccc(C[C@H](NC(=O)[C@H]2CC[C@H](CN)CC2)C(=O)Nc2ccc3[nH]nnc3c2)cc1` [Example 141, 4′-[(2S)-2-({[trans-4-(Aminomethyl)cyclohexyl]carbonyl}amino)-3-(1H-benzotriazol-5-ylamino)-3-oxopropyl]-N-cyclopropyl-2-methylbiphenyl-4-carboxamide hydrochloride], the IC50 at human factor XIa was 3.9 nM; against human plasmin, 1.6 nM. Also, the “aPTT” value with human and animal plasma is 0.30 µmol/L.

In the case of `Cc1cc(C(=O)NC(C)C)ccc1-c1ccc(C[C@H](NC(=O)[C@H]2CC[C@H](CN)CC2)C(=O)Nc2ccc3nc[nH]c3c2)cc1` [Example 142, 4′-[(2S)-2-({[trans-4-(Aminomethyl)cyclohexyl]carbonyl}amino)-3-(1H-benzimidazol-6-ylamino)-3-oxopropyl]-N-isopropyl-2-methylbiphenyl-4-carboxamide hydrochloride], the figures for the IC50 against human factor XIa and at human plasmin were 15 nM and 2.1 nM, respectively. In the assay with human and animal plasma, the “aPTT” value amounted to 0.33 µmol/L.

Consider `Cc1cc(C(=O)NC(C)C)ccc1-c1ccc(C[C@H](NC(=O)[C@H]2CC[C@H](CN)CC2)C(=O)Nc2ccc(-c3nnc(CCC(=O)O)[nH]3)cc2)cc1` [Example 157, 3-{5-[4-({(2S)-2-({[trans-4-(Aminomethyl)cyclohexyl]carbonyl}amino)-3-[4′-(isopropyl-carbamoyl)-2′-methylbiphenyl-4-yl]propanoyl}amino)phenyl]-4H-1,2,4-triazol-3-yl}propanoic acid hydrochloride], for which the values for the IC50 against human factor XIa and at human plasmin were 3.6 nM and 1.7 nM, respectively. Moreover, the “aPTT” value with human and animal plasma came out at 0.33 µmol/L.

Consider `Cc1cc(C(=O)NC(C)C)ccc1-c1ccc(C[C@H](NC(=O)[C@H]2CC[C@H](CN)CC2)C(=O)Nc2cc(C(=O)O)c3cn[nH]c3c2)cc1` [Example 161, 6-({(2S)-2-({[trans-4-(Aminomethyl)cyclohexyl]carbonyl}amino)-3-[4′-(isopropylcarbamoyl)-2′-methylbiphenyl-4-yl]propanoyl}amino)-1H-indazole-4-carboxylic acid hydrochloride], for which the IC50 on human factor XIa was determined as 6.1 nM; against human plasmin, 6.7 nM.

On to `CNC(=O)C(F)(F)C(F)(F)c1nnc(-c2ccc(NC(=O)[C@H](Cc3ccc(-c4ccc(C(=O)NC(C)C)cc4C)cc3)NC(=O)[C@H]3CC[C@H](CN)CC3)cc2)[nH]1` [Example 165, 4′-({(2S)-2-({[trans-4-(Aminomethyl)cyclohexyl]carbonyl}amino)-3-oxo-3-[(4-{5-[1,1,2,2-tetrafluoro-3-(methylamino)-3-oxopropyl]-4H-1,2,4-triazol-3-yl}phenyl)amino]propyl}-N-isopropyl-2-methylbiphenyl-4-carboxamide hydrochloride], for which the results for the IC50 against human factor XIa and against human plasmin were 1.4 nM and 1.9 nM, respectively.
